# Test results taken from patent US20110039763A1, “TARGETED ANTIMICROBIAL MOIETIES” (C3 JIAN, INC., priority 2009, published 2011).
# “Also recorded” adds a separate entry of the source. Where two headings read alike, the source gives them in different places. Bridge positions count the residues as written; N and C are the ends. Square brackets hold non-standard residues; d marks the D form. Ends that are not written are not given here. Peptide text beside a SMILES is read from it. I, II: the chains in the order shown. Aoc = NCCCCCCCC(=O)O
# Key:
# [1] = system: Mixed planktonic populations of P. aeruginosa, E. coli, S. epidermidis, and S. mutans; experiment: Microbial population shift assay; type: cell-based; conditions: mixed culture, 10 μM peptide, 24 h, detection limit 200 cfu/mL, FIG. 18
# Protocol: Peptide (10 μM) or mock-treatment (1×PBS) was then added and samples were incubated at 37° C. for 24 h under anaerobic conditions (80% N2, 15% CO2, 5% H2). […] Plates were then incubated 37° C. under aerobic conditions (TH plates were incubated anaerobically) and colonies counted after 24 h to determine survivors. […] Gram stains and direct microscopic observation (from select isolated colonies) were undertaken to confirm species identity (data not shown). The detection limit of the assay was 200 cfu/mL.
# We hypothesized that potential MH-STAMP dual-functionality could affect a particular set of bacteria within a mixed population, thereby promoting the outgrowth of non-targeted organisms and “shifting” the constituent makeup. To examine this possibility, defined mixed populations of planktonic cells were treated continuously and the make-up of the community examined after 24 h.
# S. mutans [2] = experiment: Post-antibiotic effect assay, S. mutans; type: cell-based, Streptococcus mutans; conditions: S. mutans monoculture; peptide 10 min, then fresh medium; FIG. 17A
# Protocol: The activity and selectivity of MH-STAMPs after a 10 min incubation was determined by growth retardation experiments against targeted and untargeted bacteria in monocultures, as described previously (Id.). Cells from overnight cultures were diluted to ˜5×10^6 cfu/mL in MH (or TH with 1% sucrose for S. mutans), normalized by OD600 0.05-0.1 and seeded to 96-well plates. Cultures were then grown under the appropriate conditions for 2 h (3 h for S. mutans) prior to the addition of peptides for 10 min. Plates were then centrifuged at 3000×g for 5 min, the supernatants discarded, fresh medium returned (MH or TH without sucrose for S. mutans), and incubation resumed. Bacterial growth after treatment was then monitored over time by OD600.
# MH-STAMP antimicrobial kinetics was ascertained utilizing a variation of the classical post-antibiotic effect assay, which measures the ability of an agent to affect an organism's growth after a short exposure period. Monocultures of MH-STAMP-targeted and untargeted organisms were exposed to M8(KH)-20, M8(BL)-20, BL(KH)-20, or unmodified BD2.20, then allowed to recover. […] Furthermore, replacement of the targeting region with a non-binding peptide abolishes specific activity.
# microorganisms [3] = experiment: Peptide activities: targeting/binding, antimicrobial, growth or phenotype altering (Tables 7, 8); type: cell-based; conditions: peptides having multiple activities
# microorganisms [4] = experiment: Morphology, biofilm and growth disrupting peptides (Table 5); type: cell-based; design: key: A: Peptide aggregates; B: Less hyphal formation; Clumps; Diffuse clumps and small polyps; F: Diffuse growth; H: Thin; I: Growth inhibition; Microcolony formation; Rippled; Small polyps; Thick; W: Halo formation on top, microlonies on bottom
# Excerpt: In certain embodiments peptides that induce alterations in phenotype or other biological activities can also be used as antimicrobial effector moieties.
# microorganisms [5] = experiment: Targeting peptide binding to target microorganisms (Tables 3, 10, 12); conditions: microorganism(s) the targeting peptide binds; binding in aqueous buffers varied with peptide solubility, preferably 1x PBS
# C. difficile = experiment: MIC test / antimicrobial activity, C. difficile; type: cell-based, Clostridium difficile
# Protocol: (§1) The active AMPs, STAMPs and the like can be identified and/or validated using an in vitro screening assay.
# (§2) It will be appreciated that other assays as are well known in the art or that will become apparent to those having skill in the art upon review of this disclosure may also be used to identify active AMPs. Such assays include, for example, the assay described in Lehrer et al. (1988) J. Immunol.
# (§3) Peptides were evaluated for basic antimicrobial activity by broth microdilution, as described previously (Eckert et al. (2006) Antimicrob Agents Chemother., 50: 3651-3657; Eckert et al. (2006) Antimicrob Agents Chemother., 50: 1480-1488). Briefly, ˜1×10^5 cfu/mL bacteria were diluted in TH (S. mutans), or Mueller-Hinton (MH) broth (all other organisms) and distributed to 96-well plates. Serially-diluted (2-fold) peptides were then added and the plates incubated at 37° C. for 18-24 h. […] All experiments were conducted 10 times.
# S. epidermidis = experiment: MIC test (broth microdilution) / antimicrobial activity, S. epidermidis; type: cell-based, Staphylococcus epidermidis
# Protocol: as §1, §2, §3
# S. mutans [6] = experiment: MIC test (broth microdilution) / antimicrobial activity, S. mutans; type: cell-based, Streptococcus mutans
# Protocol: as §1, §2, §3
# S. pneumoniae = experiment: MIC test / antimicrobial activity, S. pneumoniae; type: cell-based, Streptococcus pneumoniae
# Protocol: as §1, §2, §3
# MRSA = experiment: MIC test / antimicrobial activity, MRSA; type: cell-based, Methicillin-resistant Staphylococcus aureus
# Protocol: as §1, §2, §3
# E. coli = experiment: MIC test (broth microdilution) / antimicrobial activity, E. coli; type: cell-based, Escherichia coli
# Protocol: as §1, §2, §3
# P. aeruginosa = experiment: MIC test (broth microdilution) / antimicrobial activity, P. aeruginosa; type: cell-based, Pseudomonas aeruginosa
# Protocol: as §1, §2, §3
# C. jeikeium = experiment: MIC test / antimicrobial activity, C. jeikeium; type: cell-based, Corynebacterium jeikeium
# Protocol: as §1, §2, §3
# T. rubrum = experiment: MIC test / antimicrobial activity, T. rubrum; type: cell-based, Trichophyton rubrum
# Protocol: as §1, §2, §3
# A. niger = experiment: MIC test / antimicrobial activity, A. niger; type: cell-based, Aspergillus niger
# Protocol: as §1, §2, §3
# B. subtilis = experiment: MIC test / antimicrobial activity, B. subtilis; type: cell-based, Bacillus subtilis
# Protocol: as §1, §2, §3
# A. baumannii = experiment: MIC test / antimicrobial activity, A. baumannii; type: cell-based, Acinetobacter baumannii
# Protocol: as §1, §2, §3
# C. albicans = experiment: MIC test / antimicrobial activity, C. albicans; type: cell-based, Candida albicans
# Protocol: as §1, §2, §3
# S. mutans [7] = experiment: Anti-S. mutans STAMP activity in vitro, incl. formulations; type: cell-based, Streptococcus mutans
# Excerpt: During the course of evaluating STAMPs, antimicrobial peptides (AMPs), and binding peptides for desired activity, it was discovered that certain formulations can attenuate or promote peptide activity, as compared to activity levels in a default buffer system (1×PBS). In some cases, 1×PBS may provide the best level of activity. Below are a number of formulations that alter, or may alter, peptide or STAMP activity. For complex buffer systems, assume the base solvent is water unless otherwise stated.
# All show potent selective activity against their bacterial targets in vitro, including against biofilm forms. When tested, STAMPs have little cytotoxicity against cell lines in vitro.
# It was a surprising discovery that certain anti-S. mutans STAMPs required a salt in the formulation (e.g., PBS) for optimum activity. […] Suitable PBS formulations ranged from 0.5×PBS to about 2.5×PBS with an activity optimum at about 1×PBS. Similar results are believed to obtain for other anti-S. mutans STAMPS as well as a number of other STAMPs. In certain embodiments STAMP stability in solution was improved by inclusion of fluoride in mouthrinse.
molecule,measurement,setting,value
CC[C@H](C)[C@H](NC(=O)[C@H](Cc1ccccc1)NC(=O)CCCCCCCNC(=O)[C@H](CCCCNC(=O)CNC(=O)CNC(=O)CNC(=O)[C@H](C)NC(=O)[C@H](CCC(=O)O)NC(=O)[C@H](CC(N)=O)NC(=O)[C@H](C)NC(=O)[C@H](C)NC(=O)[C@@H](N)CC(=O)O)NC(=O)CNC(=O)CNC(=O)CNC(=O)[C@H](CCCNC(=N)N)NC(=O)[C@H](CC(N)=O)NC(=O)[C@H](CC(C)C)NC(=O)[C@H](Cc1ccccc1)NC(=O)[C@H](CCCNC(=N)N)NC(=O)[C@H](Cc1ccccc1)NC(=O)[C@H](Cc1ccccc1)NC(=O)[C@@H](NC(C)=O)[C@@H](C)O)C(=O)N[C@@H](CCCNC(=N)N)C(=O)N[C@@H](CCCCN)C(=O)N[C@@H](Cc1ccccc1)C(=O)N[C@@H](CC(C)C)C(=O)N[C@@H](CCCCN)C(=O)N[C@@H](CCCCN)C(=O)N[C@@H](Cc1c[nH]c2ccccc12)C(=O)N[C@@H](CC(C)C)C(=O)N[C@@H](CC(C)C)C(N)=O [M8(BL)-20] (I: Ac-TFFRFLNRGGGK[Aoc]FIRKFLKKWLL-NH2 / II: H-DAANEAGGG; amide I:12-II:C),surviving P. aeruginosa,[1]; input ~0.5×10^4 cfu/mL,not affected or affected to a lesser extent
same,surviving E. coli,[1]; input ~2×10^4 cfu/mL,not affected or affected to a lesser extent
same,surviving S. epidermidis,[1]; input ~2×10^4 cfu/mL,not affected or affected to a lesser extent
same,surviving S. mutans,[1]; input ~6×10^4 cfu/mL,greatly reduced compared to input cfu/mL
same,"growth after treatment (culture recovery, OD600)",S. mutans [2],effectively retarded
FELVDWLETNLGKILKSKSA-NH2 [PF-522],Activities,microorganisms [3],G B M
same,"Organism, effect",microorganisms [4]; S. pneumoniae,S. pneumoniae (H)
same,Target(s),microorganisms [5],S. epidermidis; also recorded: E. coli; also recorded: P. aeruginosa; also recorded: S. pneumoniae; also recorded: E. faecalis
same,Organism MIC (μM),C. difficile,"C. difficile, 25 μM"
FESKILNASKELDKEKKVNTALSFNSHQDFAKAYQNGKI [PF-606],Activities,microorganisms [3],G M
same,Organism MIC (μM),S. epidermidis; S. epidermidis,"S. epidermidis, 50 μM"
same,"Organism, effect",microorganisms [4]; C. albicans,C. albicans (B)
same,"Organism, effect",microorganisms [4]; MRSA,MRSA (I)
same,"Organism, effect",microorganisms [4]; S. epidermidis,S. epidermidis (I)
same,"Organism, effect",microorganisms [4]; S. mutans,S. mutans (I)
same,"Organism, effect",microorganisms [4]; S. pneumoniae,S. pneumoniae (H)
same,Organism MIC (μM),S. mutans [6],"S. mutans, 50 μM"
same,Organism MIC (μM),S. pneumoniae,"S. pneumoniae, 50 μM"
same,Organism MIC (μM),MRSA,"MRSA, 50 μM"
same,Organism MIC (μM),E. coli,"E. coli, 50 μM"
FIRKFLQKLHL [K-16],Organism MIC (μM),P. aeruginosa; P. aeruginosa,"P. aeruginosa, 12.5 μM"
same,Organism MIC (μM),S. mutans [6],"S. mutans, 8 μM"
same,Organism MIC (μM),MRSA,"MRSA, 25 μM"
GSVIKKRRKRMAKKKHRKLLKKTRIQRRRAGK [PF-527],Activities,microorganisms [3],G B M
same,Organism MIC (μM),S. epidermidis,"S. epidermidis, 25 μM"
same,Organism MIC (μM),C. jeikeium,"C. jeikeium, 6.25 μM"
same,Organism MIC (μM),P. aeruginosa,"P. aeruginosa, 50 μM"
same,Organism MIC (μM),T. rubrum,"T. rubrum, 25 μM"
same,"Organism, effect",microorganisms [4]; B. subtilis,B. subtilis (I)
same,"Organism, effect",microorganisms [4]; C. albicans,C. albicans (B)
same,"Organism, effect",microorganisms [4]; C. jeikeium,C. jeikeium (I)
same,"Organism, effect",microorganisms [4]; C. jejuni,C. jejuni (M)
same,"Organism, effect",microorganisms [4]; M. luteus,M. luteus (S)
same,"Organism, effect",microorganisms [4]; MRSA,MRSA (I)
same,"Organism, effect",microorganisms [4]; P. aeruginosa,P. aeruginosa (I)
same,"Organism, effect",microorganisms [4]; S. epidermidis,S. epidermidis (M)
same,"Organism, effect",microorganisms [4]; S. pneumoniae,S. pneumoniae (H)
same,Organism MIC (μM),A. niger,"A. niger, 50 μM"
same,Organism MIC (μM),MRSA,"MRSA, 50 μM"
same,Organism MIC (μM),B. subtilis,"B. subtilis, 12.5 μM"
KNKKQTDILEKVKEILDKKKKTKSVGQKLY [PF-538],Activities,microorganisms [3],G M
same,"Organism, effect",microorganisms [4]; S. pneumoniae,S. pneumoniae (H)
same,Organism MIC (μM),A. baumannii,"A. baumannii, 25 μM"
same,Organism MIC (μM),C. difficile,"C. difficile, 25 μM"
LSLATFAKIFMTRSNWSLKRFNRL [PF-278],Activities,microorganisms [3],G B M
same,Organism MIC (μM),S. epidermidis; S. epidermidis,"S. epidermidis, 50 μM"
same,Organism MIC (μM),C. albicans,"C. albicans, 50 μM"
same,Organism MIC (μM),T. rubrum,"T. rubrum, 50 μM"
same,"Organism, effect: C. albicans",microorganisms [4]; C. albicans,C. albicans (B)
same,"Organism, effect: M. luteus",microorganisms [4]; M. luteus,M. luteus (R)
same,"Organism, effect: S. epidermidis",microorganisms [4]; S. epidermidis,S. epidermidis (I)
same,Target(s),microorganisms [5],M. luteus; also recorded: A. baumannii
MKRRRCNWCGKLFYLEEKSKEAYCCKECRKKAKKVKK [PF-307],Activities,microorganisms [3],G B M
same,Organism MIC (μM),C. albicans,"C. albicans, 50 μM"
same,Organism MIC (μM),T. rubrum,"T. rubrum, 50 μM"
same,"Organism, effect: B. subtilis",microorganisms [4]; B. subtilis,B. subtilis (H)
same,"Organism, effect: C. albicans",microorganisms [4]; C. albicans,C. albicans (B)
same,"Organism, effect: S. epidermidis",microorganisms [4]; S. epidermidis,S. epidermidis (T)
same,Target(s),microorganisms [5],S. epidermidis; also recorded: B. subtilis; also recorded: B. fragilis; also recorded: C. difficile
same,Organism MIC (μM),B. subtilis; B. subtilis,"B. subtilis, 50 μM"
TFFRLFNRSFTQALGKGGGKNLRIIRKGIHIIKKY* [C16G2],STAMP activity in formulation,"S. mutans [7]; phosphate buffered saline (PBS) formulation, 0.5×PBS to about 2.5×PBS, optimum at about 1×PBS",active
same,STAMP activity in formulation,S. mutans [7]; water-based salt-free buffers and nanoemulsions,substantially inactive
TKKIELKRFVDAFVKKSYENYILERELKKLIKAINEELPTK [PF-600],Activities,microorganisms [3],G B M
same,"Organism, effect",microorganisms [4]; E. coli,E. coli (H)
same,"Organism, effect",microorganisms [4]; M. luteus,M. luteus (C)
same,"Organism, effect",microorganisms [4]; MRSA,MRSA (M)
same,"Organism, effect",microorganisms [4]; S. epidermidis,S. epidermidis (C)
same,"Organism, effect",microorganisms [4]; S. mutans,S. mutans (S)
same,"Organism, effect",microorganisms [4]; S. pneumoniae,S. pneumoniae (R)
same,Organism MIC (μM),S. pneumoniae,"S. pneumoniae, 50 μM"
same,Organism MIC (μM),E. coli,"E. coli, 50 μM"
